Where a SMILES comes first, the peptide text is derived from it.
Columns and labels:
[1] = biological target: T1, PDK1-wt (Homo sapiens, UniProt O15530); assay: Phosphorylation of AGC kinase substrates by PDK1 (32P, PhosphoImager); format: biochemical; conditions: hydrophobic motif Phe to Ala mutants
T1 construct: made in house; host or cells: human embryonic kidney 293 cells
T1 sequence (O15530 1-556): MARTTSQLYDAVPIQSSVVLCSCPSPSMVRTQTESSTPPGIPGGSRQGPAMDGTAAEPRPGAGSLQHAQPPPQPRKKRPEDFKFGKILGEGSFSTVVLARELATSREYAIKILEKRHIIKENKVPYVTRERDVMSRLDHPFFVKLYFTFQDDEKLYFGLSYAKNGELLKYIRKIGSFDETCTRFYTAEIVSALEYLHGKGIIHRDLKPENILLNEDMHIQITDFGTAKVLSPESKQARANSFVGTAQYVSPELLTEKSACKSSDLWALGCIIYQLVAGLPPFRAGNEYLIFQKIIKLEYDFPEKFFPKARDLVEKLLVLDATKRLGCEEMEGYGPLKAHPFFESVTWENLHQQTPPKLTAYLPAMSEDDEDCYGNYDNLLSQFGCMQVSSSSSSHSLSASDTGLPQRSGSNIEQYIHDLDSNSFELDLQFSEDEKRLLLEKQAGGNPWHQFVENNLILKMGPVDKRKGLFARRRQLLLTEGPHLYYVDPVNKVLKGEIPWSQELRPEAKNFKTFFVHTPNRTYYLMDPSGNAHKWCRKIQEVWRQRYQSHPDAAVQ
Protocol: Phosphorylation of AGC kinase substrates by PDK1. The phosphorylation of PDK1 substrates was performed in a final volume of 20 μl in a buffer containing 50 mM Tris-HCl pH 7.5, 0.1% (by vol) 2-mercaptoethanol, 10 mM magnesium chloride, 100 μM [γ-^32P]ATP (˜1000 c.p.m./pmol), 0.5 μM microcystin-LR, 0.6 μM AGC kinase substrate and 0.6 to 30 nM wild type PDK1 or the indicated mutant of PDK1.
Relative phosphorylation of PDK1 substrates. PDK1 substrates were phosphorylated in vitro, subjected to SDS-PAGE, and radioactivity associated with the bands measured using a Phospho-Imager and known amounts of ATP as standard. The phosphorylation rate of PKB[S473D] in the presence of PtdIns (3,4,5)P3 was 2.6 mol/mol PDK1/min and was taken as the relative value of 100. Average values from a representative experiment performed in duplicates are shown.

[2] = biological target: T2, Myc-PDK1 (Homo sapiens, UniProt O15530); assay: Glutathione-Sepharose pull-down of Myc-PDK1 with GST-PIF from 293 cells; format: binding
T2 construct: expressed in transfected cells; host or cells: 293 cells
T2 sequence (O15530 1-556): T1 sequence (O15530 1-556)
Protocol: FIG. 9. Effect of mutation of conserved residues in the PIF-binding pocket of PDK1 on the ability to interact with PIF. 293 cells were transiently transfected with DNA constructs expressing GST-PIF and either wild type Myc-PDK1 or the indicated mutants of PDK1. 36 h post transfection the cells were lysed and GST-PIF purified by affinity chromatography on glutathione-Sepharose beads. 2 μg of each protein was electrophoresed on a 10% SDS/polyacrylamide gel and either stained with Coomassie blue (A and E) or immunoblotted using an anti Myc antibody to detect Myc-PDK1 (B and F). To establish that the wild type PDK1 and mutant proteins were expressed at a similar level, 10 μg of total cell lysate was electrophoresed on a 10% SDS/polyacrylamide gel and immunoblotted using anti-Myc antibodies (C and G). Duplicates of each condition are shown. Similar results were obtained in 3 to 5 separate experiments. […]
A pEBG2T plasmid encoding GST fused to the last 77 residues of PRK2 termed GST-PIF (10 μg) and pCMV5 plasmid expressing Myc-PDK1 wild type or the indicated mutants of PDK1 (10 μg), were co-transfected into a 10 cm diameter dish of 293 cells using a modified calcium phosphate method. […] The gels were either stained with Coomassie blue, or analysed by immunoblotting with anti Myc antibodies.

Compound | basal rate at which PDK1 phosphorylated S6K1[F411A], SGK1[F421A] and ΔPH-PKBα[F472A] [1] | complex with wild type PDK1 [2]
CC[C@H](C)[C@H](NC(=O)[C@H](Cc1ccc(O)cc1)NC(=O)[C@H](CC(=O)O)NC(=O)[C@H](Cc1ccccc1)NC(=O)[C@H](CC(=O)O)NC(=O)[C@H](CCCNC(=N)N)NC(=O)[C@H](Cc1ccccc1)NC(=O)[C@H](CCSC)NC(=O)[C@H](CCC(=O)O)NC(=O)[C@H](CCC(N)=O)NC(=O)[C@H](CCC(=O)O)NC(=O)[C@H](CCC(=O)O)NC(=O)[C@H](CCC(=O)O)NC(=O)[C@H](CO)NC(=O)[C@H](CC(C)C)NC(=O)[C@@H](NC(=O)[C@H](CCCNC(=N)N)NC(=O)[C@@H]1CCCN1C(=O)[C@H](CCC(=O)O)NC(=O)[C@@H](N)CCCNC(=N)N)[C@@H](C)CC)C(=O)N[C@@H](C)C(=O)N[C@@H](CC(=O)O)C(=O)N[C@@H](Cc1c[nH]c2ccccc12)C(=O)N[C@@H](CS)C(=O)O [PIFtide] (H-REPRILSEEEQEMFRDFDYIADWC-OH; N-terminus and C-terminus assumed) | not inhibited | –
GST-PIF: glutathione S-transferase fused to the last 77 residues of PRK2 (PIF) | – | a complex was readily observed

— patent publication US20080009025A1, “PROTEIN KINASE REGULATION” (priority 1999, published 2008)
